In EP0496332A1, “Alpha-aminoquinolinoyl-[3]-penicillines, process for their preparation and their use as antibacterial agents” (ARZNEIMITTELWERK DRESDEN GmbH, priority 1991, dated 1992):
In brackets after ≈: the same amount, converted by molar mass.

Key:
Experiment in all cases: In-vitro test, inhibitory concentration by dilution series
Assay type in all cases: cell-based
[1] = system: Bacillus subtilis SG 119; conditions: SG119; I = Bacillus subtilis SG 119; step = concentration with no visible growth; read-out: Hemmkonzentration nach Verdünnung (Verdünnungsreihe) (converted)
From the text: (§1) Die antibiotische Wirksamkeit erfindungsgemäßer Verbindungen wurde in der üblichen Weise durch Ermittlung der Hemmkonzentrationen nach Verdünnung ermittelt.
(§2) Die erhaltenen Ergebnisse sind in der nachstehenden Tabelle zusammengefaßt.

[2] = system: Citrobacter freudii; conditions: XIV = Citrobacter freudii, Laborstämme; step = concentration with no visible growth; read-out: Hemmkonzentration nach Verdünnung (Verdünnungsreihe) (converted)
From the text: as §1, §2

[3] = system: Enterobacter cloacae; conditions: XIII = Enterobacter cloacae, Laborstämme; step = concentration with no visible growth; read-out: Hemmkonzentration nach Verdünnung (Verdünnungsreihe) (converted)
From the text: as §1, §2

[4] = system: Enterokokken; conditions: XI = Enterokokken, Laborstämme; step = concentration with no visible growth; read-out: Hemmkonzentration nach Verdünnung (Verdünnungsreihe) (converted)
From the text: as §1, §2

[5] = system: Escherichia coli; conditions: XII = Escherichia coli, Laborstämme; step = concentration with no visible growth; read-out: Hemmkonzentration nach Verdünnung (Verdünnungsreihe) (converted)
From the text: as §1, §2

[6] = system: Klebsiella pneumoniae SG 117; conditions: SG117; VII = Klebsiella pneumoniae SG 117; step = concentration with no visible growth; read-out: Hemmkonzentration nach Verdünnung (Verdünnungsreihe) (converted)
From the text: as §1, §2

[7] = system: Proteus vulgaris OX 19; conditions: OX19; III = Proteus vulgaris OX 19; step = concentration with no visible growth; read-out: Hemmkonzentration nach Verdünnung (Verdünnungsreihe) (converted)
From the text: as §1, §2

[8] = system: Pseudomonas aeruginosa NCTC 10701; conditions: NCTC10701; IV = Pseudomonas aeruginosa NCTC 10701; step = concentration with no visible growth; read-out: Hemmkonzentration nach Verdünnung (Verdünnungsreihe) (converted)
From the text: as §1, §2

[9] = system: Pseudomonas aeruginosa SG 137; conditions: SG137; V = Pseudomonas aeruginosa SG 137; step = concentration with no visible growth; read-out: Hemmkonzentration nach Verdünnung (Verdünnungsreihe) (converted)
From the text: as §1, §2

[10] = system: Salmonella gallinarium ATCC 9184; conditions: ATCC9184; VI = Salmonella gallinarium ATCC 9184; step = concentration with no visible growth; read-out: Hemmkonzentration nach Verdünnung (Verdünnungsreihe) (converted)
From the text: as §1, §2

[11] = system: Serratia marcescens SG 621; conditions: SG621; VIII = Serratia marcescens SG 621; step = concentration with no visible growth; read-out: Hemmkonzentration nach Verdünnung (Verdünnungsreihe) (converted)
From the text: as §1, §2

[12] = system: Staphylococcus aureus SG 511; conditions: SG511; II = Staphylococcus aureus SG 511; step = concentration with no visible growth; read-out: Hemmkonzentration nach Verdünnung (Verdünnungsreihe) (converted)
From the text: as §1, §2

[13] = system: Staphylococcus aureus; conditions: IX = Staphylococcus aureus, Laborstämme; step = concentration with no visible growth; read-out: Hemmkonzentration nach Verdünnung (Verdünnungsreihe) (converted)
From the text: as §1, §2

[14] = system: Staphylococcus epidermidis; conditions: X = Staphylococcus epidermidis, Laborstämme; step = concentration with no visible growth; read-out: Hemmkonzentration nach Verdünnung (Verdünnungsreihe) (converted)
From the text: as §1, §2

Structure (SMILES) | MIC [1] [µM] | MIC [2] [µM] | MIC [3] [µM] | MIC [4] [µM] | MIC [5] [µM] | MIC [6] [µM] | MIC [7] [µM] | MIC [8] [µM] | MIC [9] [µM] | MIC [10] [µM] | MIC [11] [µM] | MIC [12] [µM] | MIC [13] [µM] | MIC [14] [µM]
CCc1cc2c(OC(=O)OCC(C)C)c(C(=O)N[C@@H](C(=O)N[C@@H]3C(=O)N4[C@@H]3SC(C)(C)[C@@H]4C(=O)O)c3ccccc3)cnc2cc1CN1CCOCC1 [Beisp. 14, 6-[D-(-)-α-([4'-Isobutoxycarbonyloxy-6'-ethyl-7'-morpholinomethylen-chinolinoyl-3']-carboxamido)-α-phenylacetamido]-penicillansäure-Natriumsalz] | 6.25 (≈ 4.67 µg/mL) | 3.12 (≈ 2.33 µg/mL) | 3.12 (≈ 2.33 µg/mL) | 6.25 (≈ 4.67 µg/mL) | 0.78 (≈ 0.583 µg/mL) | 0.78 (≈ 0.583 µg/mL) | 0.2 (≈ 0.15 µg/mL) | 0.78 (≈ 0.583 µg/mL) | 6.25 (≈ 4.67 µg/mL) | 1.56 (≈ 1.17 µg/mL) | 0.78 (≈ 0.583 µg/mL) | 0.78 (≈ 0.583 µg/mL) | 3.12 (≈ 2.33 µg/mL) | 3.12 (≈ 2.33 µg/mL)
CCc1cc2c(OC(=O)OCC(C)C)c(C(=O)N[C@@H](C(=O)N[C@@H]3C(=O)N4[C@@H]3SC(C)(C)[C@@H]4C(=O)O)c3ccccc3)cnc2cc1COc1ccc(C(C)=O)cc1 [Beisp. 15, 6-[D-(-)-α-([4'-Isobutoxycarbonyloxy-6'-ethyl-7'-(4''-acetyl)-phenoxymethylen-chinolinoyl-3']-carboxamido)-α-phenylacetamido]-penicillansäure-Natriumsalz] | 3.12 (≈ 2.49 µg/mL) | 3.12 (≈ 2.49 µg/mL) | 3.12 (≈ 2.49 µg/mL) | 6.25 (≈ 4.98 µg/mL) | 1.56 (≈ 1.24 µg/mL) | 0.78 (≈ 0.622 µg/mL) | 0.39 (≈ 0.311 µg/mL) | 3.12 (≈ 2.49 µg/mL) | 3.12 (≈ 2.49 µg/mL) | 1.56 (≈ 1.24 µg/mL) | 0.78 (≈ 0.622 µg/mL) | 0.78 (≈ 0.622 µg/mL) | 6.25 (≈ 4.98 µg/mL) | 3.12 (≈ 2.49 µg/mL)
CCc1cc2c(OC(=O)OCC(C)C)c(C(=O)N[C@@H](C(=O)N[C@@H]3C(=O)N4[C@@H]3SC(C)(C)[C@@H]4C(=O)O)c3ccccc3)cnc2cc1COc1ccc(Cl)c(C)c1 [Beisp. 17, 6-[D-(-)-α-([4'-Isobutoxycarbonyloxy-6'-ethyl-7'-(3''-methyl-4''-chlor)-phenoxymethylen-chinolinoyl-3']-carboxamido)-α-phenylacetamido]-penicillansäure-Natriumsalz] | 1.56 (≈ 1.25 µg/mL) | 6.25 (≈ 5.02 µg/mL) | 6.25 (≈ 5.02 µg/mL) | 25 (≈ 20.1 µg/mL) | 1.56 (≈ 1.25 µg/mL) | 0.39 (≈ 0.313 µg/mL) | 0.78 (≈ 0.627 µg/mL) | 6.25 (≈ 5.02 µg/mL) | 6.25 (≈ 5.02 µg/mL) | 3.12 (≈ 2.51 µg/mL) | 1.56 (≈ 1.25 µg/mL) | 1.56 (≈ 1.25 µg/mL) | 25 (≈ 20.1 µg/mL) | 6.25 (≈ 5.02 µg/mL)
CCc1cc2c(OC(=O)OCC(C)C)c(C(=O)N[C@@H](C(=O)N[C@@H]3C(=O)N4[C@@H]3SC(C)(C)[C@@H]4C(=O)O)c3ccccc3)cnc2cc1COC [Beisp. 18, 6-[D-(-)-α-([4'-Isobutoxycarbonyloxy-6'-ethyl-7'-methoxymethylen-chinolinoyl-3']-carboxamido)-α-phenylacetamido]-penicillansäure-Natriumsalz] | 1.56 (≈ 1.08 µg/mL) | 6.25 (≈ 4.33 µg/mL) | 6.25 (≈ 4.33 µg/mL) | 25 (≈ 17.3 µg/mL) | 1.56 (≈ 1.08 µg/mL) | 0.78 (≈ 0.54 µg/mL) | 0.39 (≈ 0.27 µg/mL) | 0.78 (≈ 0.54 µg/mL) | 6.25 (≈ 4.33 µg/mL) | 3.12 (≈ 2.16 µg/mL) | 3.12 (≈ 2.16 µg/mL) | 1.56 (≈ 1.08 µg/mL) | 0.39 (≈ 0.27 µg/mL) | 6.25 (≈ 4.33 µg/mL)
COc1cc2ncc(C(=O)N[C@@H](C(=O)N[C@@H]3C(=O)N4[C@@H]3SC(C)(C)[C@@H]4C(=O)O)c3ccccc3)c(OC(=O)OCC(C)C)c2cc1OC [Beisp. 20, 6-[D-(-)-α-([4'-Isobutoxycarbonyloxy-6',7'-dimethoxychinolinoyl-3']-carboxamido)-α-phenylacetamido]-penicillansäure-Natriumsalz] | 1.56 (≈ 1.06 µg/mL) | 12.5 (≈ 8.51 µg/mL) | 12.5 (≈ 8.51 µg/mL) | 12.5 (≈ 8.51 µg/mL) | 3.12 (≈ 2.12 µg/mL) | 1.56 (≈ 1.06 µg/mL) | 0.39 (≈ 0.265 µg/mL) | 0.39 (≈ 0.265 µg/mL) | 12.5 (≈ 8.51 µg/mL) | 3.12 (≈ 2.12 µg/mL) | 6.25 (≈ 4.25 µg/mL) | 1.56 (≈ 1.06 µg/mL) | 25 (≈ 17 µg/mL) | 6.25 (≈ 4.25 µg/mL)
CCc1cc2c(OC(=O)OCC(C)C)c(C(=O)N[C@@H](C(=O)N[C@@H]3C(=O)N4[C@@H]3SC(C)(C)[C@@H]4C(=O)O)c3ccccc3)cnc2cc1COC(C)C [Beisp. 21, 6-[D-(-)-α-([4'-Isobutoxycarbonyloxy-6'-ethyl-7'-isopropoxymethylen-chinolinoyl-3']-carboxamido)-α-phenylacetamido]-penicillansäure-Natriumsalz] | 1.56 (≈ 1.12 µg/mL) | 6.25 (≈ 4.51 µg/mL) | 6.25 (≈ 4.51 µg/mL) | 12.5 (≈ 9.01 µg/mL) | 1.56 (≈ 1.12 µg/mL) | 0.78 (≈ 0.562 µg/mL) | 0.39 (≈ 0.281 µg/mL) | 0.78 (≈ 0.562 µg/mL) | 6.25 (≈ 4.51 µg/mL) | 3.12 (≈ 2.25 µg/mL) | 1.56 (≈ 1.12 µg/mL) | 1.56 (≈ 1.12 µg/mL) | 12.5 (≈ 9.01 µg/mL) | 6.25 (≈ 4.51 µg/mL)
CCc1cc2c(OC(=O)OCC(C)C)c(C(=O)N[C@@H](C(=O)N[C@@H]3C(=O)N4[C@@H]3SC(C)(C)[C@@H]4C(=O)O)c3ccccc3)cnc2cc1COC(C)CC (stereo partly drawn) [Beisp. 22, 6-[D-(-)-α-([4'-Isobutoxycarbonyloxy-6'-ethyl-7'-s-butoxymethylen-chinolinoyl-3']-carboxamido)-α-phenylacetamido]-penicillansäure-Natriumsalz] | 1.56 (≈ 1.15 µg/mL) | 3.12 (≈ 2.29 µg/mL) | 6.25 (≈ 4.59 µg/mL) | 12.5 (≈ 9.19 µg/mL) | 1.56 (≈ 1.15 µg/mL) | 0.78 (≈ 0.573 µg/mL) | 0.39 (≈ 0.287 µg/mL) | 0.78 (≈ 0.573 µg/mL) | 12.5 (≈ 9.19 µg/mL) | 1.56 (≈ 1.15 µg/mL) | 1.56 (≈ 1.15 µg/mL) | 1.56 (≈ 1.15 µg/mL) | 25 (≈ 18.4 µg/mL) | 12.5 (≈ 9.19 µg/mL)
